Measurements taken from patent publication US5059601A, “Imidazolone derivatives with activity on central nervous system and antihypertensive activity, preparation methods thereof, and pharmaceutical compositions containing them” (Istituto Lusofarmaco d'Italia S.p.A., priority 1989, dated 1991).

Assays:
[1] = toxicity in rat (DL50, oral); conditions: in vivo, read-out: toxicity in rat expressed as DL50
SHR rat = test: antihypertensive activity in SHR rat after oral administration; type: in vivo; conditions: dose of 10 mg/kg/os
Text: Said compounds have in vitro good affinity against D2, 5-HT2, α1 receptors determined towards [3H]Spiperone, [3H]-ketanserine, and [3H]-prazosine respectively, using the methods described by Y.Z. Fields, R.D. Reisine, H.I. Yamamura, Brain Research 136, 578 (1977); Y.E. Leysen, C.Y.E. Nyemegers, Y.M. Van Neuten, P.M. Endladurong, Mol Pharmacol. 21, 322 (1981); P. Greengrass, R. Bremner, Eur. J. Pharmacol. 55, 323 (1979). They show a reduced toxicity in vivo, a good activity on central nervous system in various behaviour tests (e.g. stereotypy caused by apomorfine, central dopaminergic neuronal firing) and a good antihypertensive activity (determined in SHR rat after oral administration using the method reported by J. Pfeffer and others, J. Lab. Clin. Med. 78, 957 (1971)).

COc1ccccc1N1CCN(CCc2[nH]c(=O)[nH]c2-c2ccc(F)cc2)CC1 [4-(4-fluorophenyl)-1,3-dihydro-5-[2-(4-(2-methoxyphenyl)-1-piperazinyl)ethyl]-2H-imidazol-2-one]
LD50 [1]: > 2000 mg/kg
decrease in systolic pressure (SHR rat): about 21%
